Assay results: ChEMBL document CHEMBL1127671, “Molecular modeling studies of aldose reductase inhibitors” (J Med Chem, 1994)

Each compound was assayed against Aldo-keto reductase family 1 member B1 (Rattus norvegicus, UniProt P07943) (assay: Inhibitory activity against purified rat lens aldose reductase (RLAR)).

Row | Structure (SMILES) | IC50 [µM]
1 | c1ccc2c(c1)-c1ccccc1C2c1nnn[nH]1 | 217
2 | O=C(O)C=C1c2cc(F)ccc2-c2ccc(F)cc21 | 16
3 | O=C(O)C1c2ccccc2-c2ccccc21 | 182
4 | O=C(O)C1CC12c1ccccc1-c1ccccc12 (stereo not drawn) | 11.7
5 | c1ccc2c(c1)-c1ccccc1C2Cc1nnn[nH]1 | 1490
6 | O=C(O)/C=C1\c2ccccc2-c2ccc(F)cc21 | 56

Now those with a lower IC50, led by results:

Row | IC50 [µM] | Structure (SMILES)
7 | 8.9 | O=C(O)CC1c2ccccc2-c2ccccc21
8 | 3.5 | O=C1NC(=O)C2(N1)c1ccccc1-c1ccccc12
9 | 0.85 | O=C(O)CC1c2ccccc2-c2ccc(F)cc21 (stereo not drawn)
10 | 0.43 | O=C(O)CC1c2cc(F)ccc2-c2ccc(F)cc21
11 | 0.13 | CC(C)c1cccc2c1OC(C(C)C)C(=S)N2CC(=O)O (stereo not drawn)
12 | 0.016 | O=C(O)Cc1nn(Cc2ccc(Br)cc2F)c(=O)c2ccccc12 [PONALRESTAT]
13 | 0.0044 | O=C(O)Cn1c(=O)n(Cc2ccc(Br)cc2F)c(=O)c2ccc(Cl)cc21 [ZENARESTAT]
